The source of these data is article PMC6491434 (Scientific Reports, 2019).

As a reminder, the viability is the share of living cells, or the viability signal relative to a control. Low values mean more harm to the cells, high ones less harm to the cells.

For data set [1], the target named is T1, CDK5/p25 (Homo sapiens, UniProt Q00535).
T1 construct: made in house
In words: protein kinase catalytic activity assay, CDK5/p25. The data set is classed as biochemical. The note with it: read-out: IC50 towards CDK5/p25.

Data set [2] concerns the target T2, ABCB4-I541F (Homo sapiens, UniProt P21439, I541F). Nature of the data set: Maturation of ABCB4-I541F by immunoblot in HEK cells. The data set is classed as cell-based. Further details: wild type (WT) ABCB4, isoform A (NM_000443.3), into pcDNA3 vector; expressed in transfected cells; host or cells: HEK-293 (immunoblot, PC secretion). The note with it: 100 µM, 16 hours. On the procedure:
For transient transfection of HEK cells, they were seeded at subconfluent levels in the adequate tissue culture wells at least six hours before transfection. Turbofect (Thermo Fisher scientific) was used at a ratio of reagent:DNA of 2:1 according to manufacturer’s instructions. For transient transfection of HepG2 cells, subconfluent cultures were seeded in the adequate culture wells 24 hours before transfection. Lipofectamine 3000 (Thermo Fisher Scientific) was used at a ratio of reagent:DNA of 1.5:1 according to manufacturer’s instructions. Cell treatments and processing for further analyses were performed at least 16 hours post-transfection.
(§1) Cyclosporin A (CsA) was from Santa Cruz Biotechnologies (Dallas, TX). […] Each compound was solubilized in dimethylsulfoxide (DMSO) as 1000X concentrated stock solutions in order to treat cells with 5 µM to 100 µM final concentrations, using DMSO as control vehicle at the same dilution (0.1% DMSO for all conditions). The cells were treated 24 hours post-transfection with these drugs during 16 hours, except for the viability assays for which cells were treated during three days. After drug treatment, cells were used for immunoanalyses, cell viability assays or PC secretion assays.
Western blots and indirect immunofluorescence were performed as previously described[9],[50]. […] Signals were detected with ECL prime western blotting detection reagent (GE Healthcare, Velizy-Villacoublay, France) and quantified in the linear range of detection using ImageJ 1.50i software (U.S. National Institutes of Health, Bethesda, MD).
For orientation: A western blot detects proteins with antibodies after separation by electrophoresis.

The target in data set [3] is CK1. In words: protein kinase catalytic activity assay, CK1. Type of data set: biochemical. The note with it: read-out: IC50 towards CK1.
For data set [4], the target named is T3, CDK9/T (Homo sapiens, UniProt P50750).
T3 construct: made in house
In words: protein kinase catalytic activity assay, CDK9/cyclin T. Type of data set: biochemical. The note with it: read-out: IC50 towards CDK9/T.

Data set [5] addresses T4, CDK2/A (Homo sapiens, UniProt P24941).
T4 construct: made in house
In words: protein kinase catalytic activity assay, CDK2/cyclin A. The data set is classed as biochemical. The note with it: read-out: IC50 towards CDK2/A.

The subject of data set [6] is HEK cells. In words: Cell viability, MTT assay. The conditions noted are these: three days. On the procedure: as §1
(§2) Cell viability was assessed by the conversion of MTT (3-[4,5-dimethylthiazol-2-yl]-2,5 diphenyl tetrazolium bromide) into formazan crystals by living cells, as described. In brief, HEK cells were seeded in 96-well plates in triplicate for each tested condition, including controls (no cells, no treatment, treatment with vehicle). […] These conditions were optimized in order to maintain the absorbance at 540 nm of the blanks below 0.1 OD unit (negative controls) and the absorbance at 540 nm for untreated cells between 1.0 and 1.3 OD units (positive controls). Then culture media were gently washed out, cells were lysed in 100 µL of pure DMSO and absorbance at 540 nm was measured using a multiplate cytofluorimeter SpectraFluor from Tecan (Männedorf, Switzerland). Cell viability was calculated for each triplicate after background subtraction and expressed as percentage of the mean for cells treated with vehicle only.

Data set [7] can be described thus: Cell viability, MTT assay. The note with it: human. The procedure:
as §1, §2
A general note: Formazan colour is commonly taken as a measure of viable cells.

The target of data set [8] is T2, ABCB4-I541F. Also noted: wild type (WT) ABCB4, isoform A (NM_000443.3), into pcDNA3 vector; expressed in transfected cells; host or cells: HEK-293 (immunoblot, PC secretion); HepG2 (immunofluorescence); method as in PMID 22184139, PMID 19185004. The note with it: cited from earlier work.
For data set [9], the target named is T5, ABCB4-WT (Homo sapiens, UniProt P21439).
T5 construct: wild type (WT) ABCB4, isoform A (NM_000443.3), into pcDNA3 vector; expressed in transfected cells; host or cells: HEK-293
Also noted: method as in PMID 24806754. The note with it: cited from earlier work.

The target of data set [10] is T6, ABCB4-L556R (Homo sapiens, UniProt P21439, L556R).
T6 construct: wild type (WT) ABCB4, isoform A (NM_000443.3), into pcDNA3 vector; expressed in transfected cells; host or cells: HepG2
In words: Canalicular localisation of ABCB4-L556R by indirect immunofluorescence in HepG2 cells. The data set is classed as cell-based. The note with it: 25 µM.

The target in data set [11] is T2, ABCB4-I541F. Nature of the data set: ABCB4-mediated phosphatidylcholine secretion, HEK cells expressing ABCB4-I541F. Type of data set: cell-based. Further details: wild type (WT) ABCB4, isoform A (NM_000443.3), into pcDNA3 vector; expressed in transfected cells; host or cells: HEK-293 (immunoblot, PC secretion). The conditions noted are these: 25 µM, vehicle 7.1 ± 0.8%. On the procedure: as §1
(§3) HEK cells were seeded in 0.01% poly-L-lysine (Sigma) pre-coated 6-well plates of 10 cm² area per well (1.3 × 10^6 cells per well). After transient transfection of the empty vector (control), plasmids encoding ABCB4-WT or its variants, cells were incubated during 24 hours at 37 °C in serum-free medium supplemented with 0.5 mM sodium taurocholate (Sigma) and 0.02% fatty acid–free bovine serum albumin (Sigma). Then, the secreted PC was quantified from the collected media using a fluoro-enzymatic assay previously described. Each condition was analysed in triplicate, after background subtraction, and results were normalized to the expression levels of ABCB4 determined by immunoblots of the corresponding cell lysates.

Data set [12] concerns the target T7, ABCB4-I490T (Homo sapiens, UniProt P21439, I490T).
T7 construct: wild type (WT) ABCB4, isoform A (NM_000443.3), into pcDNA3 vector; expressed in transfected cells; host or cells: HepG2
In words: Canalicular localisation of ABCB4-I490T by indirect immunofluorescence in HepG2 cells. The data set is classed as cell-based. The conditions noted are these: 25 µM.

The target in data set [13] is T5, ABCB4-WT. In words: ABCB4-mediated phosphatidylcholine secretion, HEK cells expressing ABCB4-WT. Type of data set: cell-based. The conditions noted are these: from dose-response curves of Fig. 4C, read-out: IC50 (µM) (min-max) on the PC secretion activity of ABCB4-WT. The procedure:
as §1, §3

T3 sequence (P50750 whole entry, species assumed): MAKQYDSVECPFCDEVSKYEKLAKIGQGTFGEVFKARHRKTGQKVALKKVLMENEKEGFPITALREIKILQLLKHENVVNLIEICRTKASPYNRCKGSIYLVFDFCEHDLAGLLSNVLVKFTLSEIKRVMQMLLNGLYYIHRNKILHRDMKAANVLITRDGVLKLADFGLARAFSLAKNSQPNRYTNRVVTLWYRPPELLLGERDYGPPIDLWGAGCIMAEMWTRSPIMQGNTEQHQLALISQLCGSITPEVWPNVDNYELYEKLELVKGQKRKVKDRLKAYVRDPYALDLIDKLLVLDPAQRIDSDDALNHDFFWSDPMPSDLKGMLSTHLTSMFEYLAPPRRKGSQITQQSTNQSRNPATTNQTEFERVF
T3 sequence (O60563 whole entry partner, species assumed): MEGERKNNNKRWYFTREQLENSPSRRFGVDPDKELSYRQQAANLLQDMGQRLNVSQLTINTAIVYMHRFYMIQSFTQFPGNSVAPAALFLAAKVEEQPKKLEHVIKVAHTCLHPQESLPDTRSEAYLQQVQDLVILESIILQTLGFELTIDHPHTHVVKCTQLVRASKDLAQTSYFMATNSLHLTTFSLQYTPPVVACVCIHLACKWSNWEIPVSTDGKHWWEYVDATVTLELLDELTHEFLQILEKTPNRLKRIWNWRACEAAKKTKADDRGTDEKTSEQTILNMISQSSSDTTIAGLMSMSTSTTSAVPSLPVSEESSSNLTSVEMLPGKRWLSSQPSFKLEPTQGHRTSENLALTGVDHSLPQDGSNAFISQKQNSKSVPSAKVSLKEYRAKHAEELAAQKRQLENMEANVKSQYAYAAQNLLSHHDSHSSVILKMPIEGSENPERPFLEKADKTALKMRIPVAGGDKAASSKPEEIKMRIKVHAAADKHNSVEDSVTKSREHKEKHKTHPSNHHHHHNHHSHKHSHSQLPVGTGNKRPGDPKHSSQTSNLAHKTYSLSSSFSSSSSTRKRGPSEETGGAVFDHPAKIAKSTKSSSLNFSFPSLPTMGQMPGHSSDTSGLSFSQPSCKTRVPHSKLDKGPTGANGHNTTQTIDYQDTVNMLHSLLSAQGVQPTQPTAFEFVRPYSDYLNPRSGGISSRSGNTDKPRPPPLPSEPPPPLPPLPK
T6 sequence (P21439 1-1279 isoform P21439-2 L556R): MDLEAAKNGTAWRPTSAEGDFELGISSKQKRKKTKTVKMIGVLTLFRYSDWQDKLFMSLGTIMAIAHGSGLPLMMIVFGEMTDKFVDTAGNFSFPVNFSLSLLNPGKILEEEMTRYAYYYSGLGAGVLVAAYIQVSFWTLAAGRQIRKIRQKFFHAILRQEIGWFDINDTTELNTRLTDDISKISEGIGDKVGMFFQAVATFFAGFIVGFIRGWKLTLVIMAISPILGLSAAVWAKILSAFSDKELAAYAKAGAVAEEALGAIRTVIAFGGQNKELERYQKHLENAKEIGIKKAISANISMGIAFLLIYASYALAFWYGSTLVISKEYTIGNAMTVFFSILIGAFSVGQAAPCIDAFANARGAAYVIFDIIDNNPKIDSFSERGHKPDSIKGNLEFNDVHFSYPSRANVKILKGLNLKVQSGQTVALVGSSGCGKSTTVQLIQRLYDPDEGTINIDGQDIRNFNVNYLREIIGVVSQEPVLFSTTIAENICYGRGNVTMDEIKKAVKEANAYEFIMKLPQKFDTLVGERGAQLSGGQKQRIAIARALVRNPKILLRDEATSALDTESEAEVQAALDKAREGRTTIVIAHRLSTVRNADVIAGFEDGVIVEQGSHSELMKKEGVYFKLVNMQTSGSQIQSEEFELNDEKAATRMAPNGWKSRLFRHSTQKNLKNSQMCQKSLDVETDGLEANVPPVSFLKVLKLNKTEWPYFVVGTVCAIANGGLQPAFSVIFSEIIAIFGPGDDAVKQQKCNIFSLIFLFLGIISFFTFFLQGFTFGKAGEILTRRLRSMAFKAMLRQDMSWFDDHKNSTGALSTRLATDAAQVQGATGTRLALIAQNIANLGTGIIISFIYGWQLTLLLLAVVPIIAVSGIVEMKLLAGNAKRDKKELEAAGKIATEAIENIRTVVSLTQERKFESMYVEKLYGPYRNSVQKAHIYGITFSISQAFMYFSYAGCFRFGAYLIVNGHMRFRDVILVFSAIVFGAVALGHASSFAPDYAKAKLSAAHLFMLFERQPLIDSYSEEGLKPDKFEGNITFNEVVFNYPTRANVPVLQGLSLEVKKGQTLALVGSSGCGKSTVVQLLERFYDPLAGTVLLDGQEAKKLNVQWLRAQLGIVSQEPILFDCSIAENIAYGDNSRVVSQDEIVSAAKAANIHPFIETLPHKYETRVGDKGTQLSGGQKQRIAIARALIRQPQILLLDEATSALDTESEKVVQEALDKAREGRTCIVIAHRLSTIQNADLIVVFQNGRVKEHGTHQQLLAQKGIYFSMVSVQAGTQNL
T2 sequence (P21439 1-1279 isoform P21439-2 I541F): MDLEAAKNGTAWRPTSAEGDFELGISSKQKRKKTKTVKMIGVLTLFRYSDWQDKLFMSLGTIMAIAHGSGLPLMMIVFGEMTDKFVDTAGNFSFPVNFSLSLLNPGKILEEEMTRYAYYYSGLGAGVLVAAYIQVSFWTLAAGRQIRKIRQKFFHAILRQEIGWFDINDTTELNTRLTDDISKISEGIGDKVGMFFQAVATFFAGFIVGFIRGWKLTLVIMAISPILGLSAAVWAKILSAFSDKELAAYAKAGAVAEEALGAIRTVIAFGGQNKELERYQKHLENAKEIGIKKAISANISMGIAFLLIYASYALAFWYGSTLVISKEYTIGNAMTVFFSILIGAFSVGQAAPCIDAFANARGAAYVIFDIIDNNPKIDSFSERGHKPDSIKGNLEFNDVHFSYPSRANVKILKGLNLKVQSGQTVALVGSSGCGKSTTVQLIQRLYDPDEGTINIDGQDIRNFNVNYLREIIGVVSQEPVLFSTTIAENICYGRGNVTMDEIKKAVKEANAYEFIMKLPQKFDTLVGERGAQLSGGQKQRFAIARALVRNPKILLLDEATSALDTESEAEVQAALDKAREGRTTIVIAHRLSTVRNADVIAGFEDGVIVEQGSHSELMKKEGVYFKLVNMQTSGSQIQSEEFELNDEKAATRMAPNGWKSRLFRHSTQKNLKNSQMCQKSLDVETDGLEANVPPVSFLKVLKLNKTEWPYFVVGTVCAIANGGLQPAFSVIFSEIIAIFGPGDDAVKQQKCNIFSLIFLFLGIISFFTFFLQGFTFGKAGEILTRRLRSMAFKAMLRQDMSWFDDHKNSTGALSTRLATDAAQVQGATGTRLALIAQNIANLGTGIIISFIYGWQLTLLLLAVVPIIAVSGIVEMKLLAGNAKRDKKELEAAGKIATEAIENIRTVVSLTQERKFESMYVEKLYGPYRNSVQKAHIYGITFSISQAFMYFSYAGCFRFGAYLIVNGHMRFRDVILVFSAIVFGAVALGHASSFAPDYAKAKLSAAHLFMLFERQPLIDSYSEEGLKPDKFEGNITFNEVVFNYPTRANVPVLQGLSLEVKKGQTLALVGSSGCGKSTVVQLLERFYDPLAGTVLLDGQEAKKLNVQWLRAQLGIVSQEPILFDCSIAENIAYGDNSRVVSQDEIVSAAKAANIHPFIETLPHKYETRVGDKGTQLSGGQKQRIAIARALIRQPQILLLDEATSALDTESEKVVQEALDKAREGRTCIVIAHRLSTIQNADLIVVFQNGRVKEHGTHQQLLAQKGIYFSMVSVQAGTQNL
T1 sequence (Q00535 whole entry, species assumed): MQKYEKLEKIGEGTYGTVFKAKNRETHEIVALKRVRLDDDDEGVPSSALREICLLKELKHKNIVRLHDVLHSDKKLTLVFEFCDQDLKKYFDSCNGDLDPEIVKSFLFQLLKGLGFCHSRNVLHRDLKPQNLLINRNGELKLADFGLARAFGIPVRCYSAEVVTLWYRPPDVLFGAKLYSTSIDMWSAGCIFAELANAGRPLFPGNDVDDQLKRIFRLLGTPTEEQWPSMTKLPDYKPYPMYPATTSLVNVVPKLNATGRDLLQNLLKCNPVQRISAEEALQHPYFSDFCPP
T1 sequence (Q15078 99-307 partner limits assumed, species assumed): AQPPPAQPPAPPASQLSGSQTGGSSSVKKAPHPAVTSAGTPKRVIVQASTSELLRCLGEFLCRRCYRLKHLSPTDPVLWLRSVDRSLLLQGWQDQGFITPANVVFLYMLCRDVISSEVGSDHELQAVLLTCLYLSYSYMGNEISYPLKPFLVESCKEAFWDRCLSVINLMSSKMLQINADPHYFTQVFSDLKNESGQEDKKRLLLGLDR

`CC[C@@H](Nc1nc(NCc2ccccc2)c2ncn(C3CCCC3)c2n1)C(=O)O` [MRT2-245]: the IC50 in data set [1] turned out to be 15 µM; in [3], 17 µM; in [4], 28 µM; in [5], 6.3 µM. Also, the “maturation of ABCB4-I541F (expression of the mature form)” value (from here on “maturation of ABCB4-I541F”) in [2] is “significantly increase the expression of a mature form of ABCB4-I541F”.
Turning to `CC(C)n1cnc2c(NCc3ccccc3)nc(N[C@@H](CO)C(=O)O)nc21` [MRT2-164], the IC50 in data set [3] came out at 28 µM; in data set [4] it was 17 µM.
With `CC[C@H](CO)Nc1nc(NCc2ccccc2)c2ncn(C(C)C)c2n1` [Roscovitine, (R)-roscovitine], the “cell viability after treatment at 100 µM” value in data set [6] (100 µM, HEK cells expressing ABCB4-WT) was “massive cell death”. The cytotoxicity result in data set [6] (increasing concentrations, HEK cells) was “important dose-dependent cytotoxicity”. In addition, the viability at 72 h, 25 µM in [7] is less than 60%.
As for `CC(Nc1nc(NCc2ccccc2)c2ncn(C(C)C)c2n1)C(=O)O` (stereo not drawn) [MRT2-163], in data set [3], the IC50 was found to be 20 µM.
Regarding `CC[C@@H](Nc1nc(NCc2cccc(C(F)(F)F)c2)c2ncn(C(C)C)c2n1)C(=O)O` [MRT2-249], the IC50 in data set [1] is 27 µM; in [3], 5 µM; in data set [4] it was greater than 33 µM; in data set [5], 9 µM. Moreover, the “maturation of ABCB4-I541F” value in data set [2] is on record as “significantly increase the expression of a mature form of ABCB4-I541F”.
In the same order, the values of `CC[C@@H](Nc1nc(NCc2cccc(C(F)(F)F)c2)c2ncn(C3CCCC3)c2n1)C(=O)O` [MRT2-239] are 11 µM, 4 µM, 20 µM, 8 µM and “significantly increase the expression of a mature form of ABCB4-I541F”.
As for Cyclosporin A [CsA], the “rescue of maturation and canalicular localisation of ABCB4-I541F” value in [8] is recorded as “partially rescued”. Besides, in data set [9], the “effect on the PC secretion activity of ABCB4” value is listed as “inhibits the PC secretion activity of ABCB4”.
With `CC[C@@H](Nc1nc(NCc2ccccc2)c2ncn(C(C)C)c2n1)C(=O)O` [M3, reference compound], the IC50 in data set [3] and in data set [4] was greater than 33 µM each time.
For `CC[C@@H](Nc1nc(NCc2cccc(Cl)c2)c2ncn(C3CCCC3)c2n1)C(=O)O` [MRT2-237], the IC50 came to 7.7 µM in data set [1]; 3.33 µM in [3]; 9 µM in [4]; 3.4 µM in data set [5]; 29.3 µM in data set [13]. The “relocalisation of ABCB4-L556R at bile canaliculi” value (shortened to “relocalisation of ABCB4-L556R”) in data set [10] was “partially relocalised at bile canaliculi”. In [2], the “maturation of ABCB4-I541F” value was “significantly increase the expression of a mature form of ABCB4-I541F”. Further, in data set [11], the “PC secretion activity of ABCB4-I541F (% of ABCB4-WT activity)” value came out at 13.0 ± 3.5%. In addition, the “relocalisation of ABCB4-I490T at bile canaliculi” value (“relocalisation of ABCB4-I490T” for short) in [12] is listed as “partially relocalised at bile canaliculi”.
For the compound `CC[C@@H](Nc1nc(NCc2cccc(F)c2)c2ncn(C3CCCC3)c2n1)C(=O)O` [MRT2-235], the IC50 is 8.3 µM in [1]; 7 µM in data set [3]; 7 µM in data set [4]; 5.9 µM in data set [5]; 21 µM in data set [13]. The “relocalisation of ABCB4-L556R” value in [10] is given as “partially relocalised at bile canaliculi”. Also, the “maturation of ABCB4-I541F” value in [2] is “significantly increase the expression of a mature form of ABCB4-I541F”. For the same compound, in [11], the “PC secretion activity of ABCB4-I541F (% of ABCB4-WT activity)” value turned out to be 19.0 ± 3.4%. In [12], the “relocalisation of ABCB4-I490T” value is recorded as “partially relocalised at bile canaliculi”.
For the compound `CC[C@@H](Nc1nc(NCc2ccc(Cl)c(F)c2)c2ncn(C3CCCC3)c2n1)C(=O)O` [MRT2-243], the IC50 came out at 6.3 µM in data set [1]; 6.1 µM in data set [3]; 5 µM in data set [4]; 3 µM in data set [5]; 17.6 µM in [13]. The “relocalisation of ABCB4-L556R” value in data set [10] is “partially relocalised at bile canaliculi”. In addition, the “maturation of ABCB4-I541F” value in [2] was “significantly increase the expression of a mature form of ABCB4-I541F”. Besides, the “PC secretion activity of ABCB4-I541F (% of ABCB4-WT activity)” value in [11] is listed as 22.5 ± 6.2%. Besides, the “relocalisation of ABCB4-I490T” value in data set [12] is given as “partially relocalised at bile canaliculi”.
Regarding `CC[C@@H](Nc1nc(NCc2ccc(F)c(F)c2)c2ncn(C3CCCC3)c2n1)C(=O)O` [MRT2-241], the IC50 in [1] was 17 µM; in [3], 11 µM; in [4], 8 µM; in data set [5] it was 5.1 µM. In addition, the “maturation of ABCB4-I541F” value in data set [2] is on record as “significantly increase the expression of a mature form of ABCB4-I541F”.
